Measurements as given in patent US4663457A, “1-cyclopropyl-6,7-dihalo-1,4-dihydro-4-oxo-1,8-naphthyridine -3-carboxylic acid and their esters, useful as intermediates for preparing the 7-amine substituted naphthyridines” (Warner-Lambert Company, priority 1985, dated 1987).
≈ marks a conversion by molar mass, not a printed value. Like-named read-outs stand apart in the source and are kept apart here.

Columns and labels:
Test in all cases: in vitro antibacterial activity, MIC by microtitration dilution method
Type in all cases: cell-based
[1] = test system: Enterobacter cloacae MA 2646; conditions: MA2646, read-out: Minimal Inhibitory Concentration MIC
From the text: (§1) The compounds of the invention display antibacterial activity when tested by the microtitration dilution method as described in Heifetz, et al, Antimicr. Agents & Chemoth., 6, 124 (1974), which is incorporated herein by reference.
(§2) By use of the above referenced method, the followed minimum inhibitory concentration values (MICs in μg/ml) were obtained for representative compounds of the invention.

[2] = test system: Escherichia coli Vogel; conditions: read-out: Minimal Inhibitory Concentration MIC
From the text: as §1, §2

[3] = test system: Klebsiella pneumoniae MGH-2; conditions: MGH2, read-out: Minimal Inhibitory Concentration MIC
From the text: as §1, §2

[4] = test system: Proteus rettgeri M 1771; conditions: Providencia rettgeri, M1771, read-out: Minimal Inhibitory Concentration MIC
From the text: as §1, §2

[5] = test system: Pseudomonas aeruginosa UI-18; conditions: UI18, read-out: Minimal Inhibitory Concentration MIC
From the text: as §1, §2

[6] = test system: Staphylococcus aureus H 228; conditions: H228, read-out: Minimal Inhibitory Concentration MIC
From the text: as §1, §2

[7] = test system: Staphylococcus aureus UC-76; conditions: UC76, read-out: Minimal Inhibitory Concentration MIC
From the text: as §1, §2

[8] = test system: Streptococcus faecalis MGH-2; conditions: Enterococcus faecalis, MGH2, read-out: Minimal Inhibitory Concentration MIC
From the text: as §1, §2

[9] = test system: Streptococcus pneumoniae SV-1; conditions: SV1, read-out: Minimal Inhibitory Concentration MIC
From the text: as §1, §2

[10] = test system: Streptococcus pyogenes C-203
From the text: Agents & Chemoth., 6, 124 (1974), which is incorporated herein by reference.

[11] = C203, in vitro, Streptococcus pyogenes C-203, read-out: Minimal Inhibitory Concentration MIC

| MIC [10, 11] [µg/mL] | SMILES | MIC [1] [µg/mL] | MIC [2] [µg/mL] | MIC [3] [µg/mL] | MIC [4] [µg/mL] | MIC [5] [µg/mL] | MIC [6] [µg/mL] | MIC [7] [µg/mL] | MIC [8] [µg/mL] | MIC [9] [µg/mL] | MIC ([10]; Streptococcus pyogenes, C203, read-out: Minimal Inhibitory Concentration MIC) [µg/mL] |
| --- | --- | --- | --- | --- | --- | --- | --- | --- | --- | --- | --- |
| 1.6 (≈ 4.81 µM) | O=C(O)c1cn(C2CC2)c2nc(N3CCNCC3)c(F)cc2c1=O [Ex. 1, 1-Cyclopropyl-6-fluoro-1,4-dihydro-4-oxo-7-(1-piperazinyl)-1,8-naphthyridine-3-carboxylic acid] | 0.1 (≈ 0.301 µM) | ≤ 0.1 | 0.1 (≈ 0.301 µM) | 0.2 (≈ 0.602 µM) | 0.2 (≈ 0.602 µM) | 1.6 (≈ 4.81 µM) | 0.4 (≈ 1.2 µM) | 1.6 (≈ 4.81 µM) | 1.6 (≈ 4.81 µM) |  |
|  | CN1CCN(c2nc3c(cc2F)c(=O)c(C(=O)O)cn3C2CC2)CC1 [Ex. 2, 1-Cyclopropyl-6-fluoro-1,4-dihydro-7-(4-methyl-1-piperazinyl)-4-oxo-1,8-naphthyridine-3-carboxylic acid] | ≤ 0.1 | ≤ 0.1 | ≤ 0.1 | 0.4 (≈ 1.15 µM) | 0.4 (≈ 1.15 µM) | 0.4 (≈ 1.15 µM) | 0.1 (≈ 0.289 µM) | 0.8 (≈ 2.31 µM) | 6.3 (≈ 18.2 µM) | 3.1 (≈ 8.95 µM) |
| 0.4 (≈ 1.14 µM) | O=C(O)c1cn(C2CC2)c2c(F)c(N3CCC(O)C3)c(F)cc2c1=O (stereo not shown) [Ex. 4, 1-Cyclopropyl-6,8-difluoro-1,4-dihydro-7-(3-hydroxy-1-pyrrolidinyl)-4-oxo-3-quinolinecarboxylic acid] | 0.2 (≈ 0.571 µM) | 0.1 (≈ 0.285 µM) | 0.05 (≈ 0.143 µM) | 0.2 (≈ 0.571 µM) | 0.8 (≈ 2.28 µM) | 0.025 (≈ 0.0714 µM) | 0.013 (≈ 0.0371 µM) | 0.1 (≈ 0.285 µM) | 0.4 (≈ 1.14 µM) |  |

| SMILES | MIC [10, 11] [µg/mL] | MIC [1] [µg/mL] | MIC [2] [µg/mL] | MIC [3] [µg/mL] | MIC [4] [µg/mL] | MIC [5] [µg/mL] | MIC [6] [µg/mL] | MIC [7] [µg/mL] | MIC [8] [µg/mL] | MIC [9] [µg/mL] | MIC ([10]; Streptococcus pyogenes, C203, read-out: Minimal Inhibitory Concentration MIC) [µg/mL] |
| --- | --- | --- | --- | --- | --- | --- | --- | --- | --- | --- | --- |
| O=C(O)c1cn(C2CC2)c2c(F)c(N3CCNCC3)c(F)cc2c1=O [Ex. 3, 1-Cyclopropyl-6,8-difluoro-1,4-dihydro-4-oxo-7-(1-piperazinyl)-3-quinolinecarboxylic acid] | 0.4 (≈ 1.15 µM) | ≤ 0.1 | ≤ 0.1 | ≤ 0.1 | ≤ 0.1 | 0.2 (≈ 0.573 µM) | 0.4 (≈ 1.15 µM) | ≤ 0.1 | 0.4 (≈ 1.15 µM) | 0.8 (≈ 2.29 µM) |  |
